Source: paper PMC2749987 (European journal of pharmacology, 2009)
Read-outs that look alike come from different tables or passages of the source.

Legend:
human 5-HT2A receptor [1] = target: T1, human 5-HT2A receptor (Homo sapiens, UniProt P28223); format: binding; settings: for nH (Hill slope), 5-HT2A binding: competition binding
5-HT2B receptors [2] = settings: ref Jensen, 2006, Smith et al., Thomsen et al., 2008; cited from earlier work
5-HT2B receptors [3] = settings: read-out: affinity at 5-HT2B receptors Ki, ref Jensen, 2006, Smith et al., Thomsen et al., 2008; cited from earlier work
5-HT2A receptors [4] = settings: ref Jensen, 2006, Smith et al., Thomsen et al., 2008; cited from earlier work
rats = settings: oral single-dose, ref Thomsen et al., 2008, cited from earlier work
5-HT2A receptors [5] = settings: read-out: affinity at 5-HT2A receptors Ki, ref Jensen, 2006, Smith et al., Thomsen et al., 2008; cited from earlier work
5-HT2C receptors = settings: ref Jensen, 2006, Smith et al., Thomsen et al., 2008; cited from earlier work
human 5-HT2B receptor [6] = target: T2, human 5-HT2B receptor (Homo sapiens, UniProt P41595); format: binding; settings: for nH (Hill slope), 5-HT2B binding: competition binding
human 5-HT2B receptor [7] = target: T2, human 5-HT2B receptor
mice = settings: intraperitoneal single-dose, ref Rowland et al., 2008, cited from earlier work
human 5-HT2C receptor [8] = target: T3, human 5-HT2C receptor (Homo sapiens, UniProt P28335); format: cell-based
T3 sequence (P28335 33-458): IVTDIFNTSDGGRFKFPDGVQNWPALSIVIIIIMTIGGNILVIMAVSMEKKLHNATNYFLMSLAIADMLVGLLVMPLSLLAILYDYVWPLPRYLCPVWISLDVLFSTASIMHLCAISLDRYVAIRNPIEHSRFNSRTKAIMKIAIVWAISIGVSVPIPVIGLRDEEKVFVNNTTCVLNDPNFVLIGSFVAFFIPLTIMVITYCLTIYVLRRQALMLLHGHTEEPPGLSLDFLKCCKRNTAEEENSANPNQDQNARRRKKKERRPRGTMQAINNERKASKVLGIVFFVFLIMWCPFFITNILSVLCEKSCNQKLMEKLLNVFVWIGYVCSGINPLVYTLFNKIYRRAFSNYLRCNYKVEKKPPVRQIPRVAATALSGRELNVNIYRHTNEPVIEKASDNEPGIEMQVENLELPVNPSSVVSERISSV

human 5-HT2C receptor [9] = target: T3, human 5-HT2C receptor; format: binding; settings: for nH (Hill slope), 5-HT2C binding: competition binding
human 5-HT2A receptor [10] = target: T1, human 5-HT2A receptor; format: cell-based
5-HT2A = settings: ref Knight et al., 2004; cited from earlier work
[11] = read-out: 5-HT2B Ki ± SEM, competition vs 5.0 nM [3H]-mesulergine
[12] = read-out: 5-HT2A Ki ± SEM, competition vs 1.0 nM [3H]-ketanserin

T2 sequence (P41595 whole entry): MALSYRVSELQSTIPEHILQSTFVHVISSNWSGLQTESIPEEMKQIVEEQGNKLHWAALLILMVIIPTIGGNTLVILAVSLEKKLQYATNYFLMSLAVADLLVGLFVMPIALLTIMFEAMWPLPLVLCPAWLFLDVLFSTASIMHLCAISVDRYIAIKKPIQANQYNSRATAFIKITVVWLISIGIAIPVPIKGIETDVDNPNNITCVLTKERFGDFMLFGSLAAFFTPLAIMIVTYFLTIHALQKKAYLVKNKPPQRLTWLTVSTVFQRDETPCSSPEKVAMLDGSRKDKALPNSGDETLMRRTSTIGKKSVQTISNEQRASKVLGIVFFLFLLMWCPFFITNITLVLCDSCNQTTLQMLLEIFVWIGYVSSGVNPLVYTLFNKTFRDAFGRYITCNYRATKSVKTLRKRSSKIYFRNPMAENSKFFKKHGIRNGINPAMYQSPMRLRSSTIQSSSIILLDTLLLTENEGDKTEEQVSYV
T1 sequence (P28223 whole entry): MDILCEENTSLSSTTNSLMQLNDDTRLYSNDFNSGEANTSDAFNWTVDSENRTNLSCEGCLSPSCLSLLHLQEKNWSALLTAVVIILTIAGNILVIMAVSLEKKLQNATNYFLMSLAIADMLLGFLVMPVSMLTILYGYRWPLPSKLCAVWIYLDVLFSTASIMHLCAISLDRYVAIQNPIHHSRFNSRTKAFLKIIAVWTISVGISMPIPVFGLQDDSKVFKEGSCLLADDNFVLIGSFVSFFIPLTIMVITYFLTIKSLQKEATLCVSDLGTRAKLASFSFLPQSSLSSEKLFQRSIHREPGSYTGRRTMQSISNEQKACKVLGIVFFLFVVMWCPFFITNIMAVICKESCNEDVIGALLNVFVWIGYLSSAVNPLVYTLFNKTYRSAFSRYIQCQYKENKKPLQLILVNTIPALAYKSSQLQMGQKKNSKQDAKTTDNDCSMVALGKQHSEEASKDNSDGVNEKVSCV

Question: With `[3H]C([3H])(N1CCC(C(=O)c2ccc(F)cc2)CC1)C([3H])([3H])n1c(=O)[nH]c2ccccc2c1=O` [[^3H]-Ketanserin, reference compound] as the molecule, how does the “Bmax, 5-HT2A receptors” value (human 5-HT2A receptor [1]; saturation binding) read?
Answer: 1.73 ± 0.11 pmol/mg protein

Question: For `C[C@H]1CNCCc2ccc(Cl)cc21` [lorcaserin], which “efficacy, activation of 5-HT2B receptors” value (5-HT2B receptors [2]) is on record?
Answer: 100%

Question: And the Ki (5-HT2B receptors [3])?
Answer: ~174 nM

Question: What about the “efficacy, activation of 5-HT2A receptors” value (5-HT2A receptors [4]) of the same molecule?
Answer: 75%

Question: What about the “maximal reduction of food intake” value (rats; at 24 mg/kg) of the same molecule?
Answer: about 60%

Question: What about the “ED50, reduction of food intake” value (rats) of the same molecule?
Answer: 18 mg/kg

Question: And the Ki (5-HT2A receptors [5])?
Answer: ~112 nM

Question: And the “affinity for 5-HT2C receptors higher than at 5-HT2A receptors” value (5-HT2C receptors)?
Answer: about 7.5 times

Question: What about the “affinity for human 5-HT2C over 5-HT2B receptors” value (5-HT2C receptors) of the same molecule?
Answer: about 12 times

Question: For `CN(C)[C@@H]1Cc2ccccc2[C@@H](c2ccccc2)C1` (relative stereo) [(−)-trans-PAT, (1R,3S)-(−)-trans-1-phenyl-3-dimethylamino-1,2,3,4-tetrahydronaphthalene], which “nH (Hill slope), 5-HT2B binding” value (human 5-HT2B receptor [6]) is on record?
Answer: 1.0 ± 0.001

Question: What about the Ki (human 5-HT2B receptor [6]; [11]) of the same molecule?
Answer: 1200 nM

Question: What about the Ki (human 5-HT2B receptor [6]; read-out: 5-HT2B receptor affinity Ki, as quoted in text from Table) of the same molecule?
Answer: ~1200 nM

Question: What about the “nH, inverse agonism at 5-HT2B receptors” value (human 5-HT2B receptor [7]) of the same molecule?
Answer: 0.87 ± 0.23

Question: And the “stimulation of PLC/[3H]-IP formation in cells expressing 5-HT2B receptors” value (human 5-HT2B receptor [7])?
Answer: does not stimulate

Question: What about the “(maximal) inhibition of constitutive signaling at 5-HT2B receptors” value (human 5-HT2B receptor [7]; 10 μM) of the same molecule?
Answer: 35.3 ± 2.00%

Question: And the “pA2, 5-HT2B receptors” value (human 5-HT2B receptor [7]; vs serotonin)?
Answer: 5.8

Question: What about the “nH (Hill slope), 5-HT2A binding” value (human 5-HT2A receptor [1]) of the same molecule?
Answer: 1.1 ± 0.1

Question: And the Ki (human 5-HT2A receptor [1]; [12])?
Answer: 410 ± 38 nM

Question: And the Ki (human 5-HT2A receptor [1]; read-out: 5-HT2A receptor affinity Ki, as quoted in text from Table)?
Answer: ~400 nM

Question: And the “maximal reduction of food intake” value (mice; at 10 mg/kg)?
Answer: about 75%

Question: What about the “ED50, reduction of food intake” value (mice) of the same molecule?
Answer: 4.2 mg/kg

Question: What about the “potency (EC50) to activate 5-HT2C receptors greater than 5-HT2C affinity (Ki)” value (human 5-HT2C receptor [8]) of the same molecule?
Answer: about 2 times

Question: What about the “Emax, 5-HT2C activation” value (human 5-HT2C receptor [8]; CHO cells) of the same molecule?
Answer: 464 ± 10.8 % basal control activity

Question: What about the “nH, 5-HT2C activation” value (human 5-HT2C receptor [8]; CHO cells) of the same molecule?
Answer: 0.75 ± 0.13

Question: What about the “difference in affinity at 5-HT2A and 5-HT2C receptors” value (human 5-HT2C receptor [9]) of the same molecule?
Answer: 10 times

Question: What about the “nH (Hill slope), 5-HT2C binding” value (human 5-HT2C receptor [9]) of the same molecule?
Answer: 0.9 ± 0.1

Question: What about the “nH, inverse agonism at 5-HT2A receptors” value (human 5-HT2A receptor [10]) of the same molecule?
Answer: 0.85 ± 0.01

Question: What about the “stimulation of PLC/[3H]-IP formation in cells expressing 5-HT2A receptors” value (human 5-HT2A receptor [10]) of the same molecule?
Answer: does not stimulate

Question: What about the “(maximal) inhibition of constitutive signaling at 5-HT2A receptors” value (human 5-HT2A receptor [10]; 10 μM) of the same molecule?
Answer: 57.6 ± 5.66%

Question: What about the “pA2, 5-HT2A receptors” value (human 5-HT2A receptor [10]; vs serotonin) of the same molecule?
Answer: 6.3

Question: Which “nH (Hill slope), 5-HT2B binding” value (human 5-HT2B receptor [6]) does the source give for `CN(C)[C@H]1Cc2ccccc2[C@@H](c2ccccc2)C1` [(+)-cis-PAT] here?
Answer: ~1.0

Question: What about the Ki (human 5-HT2B receptor [6]; [11]) of the same molecule?
Answer: ~5000 nM

Question: And the “nH (Hill slope), 5-HT2A binding” value (human 5-HT2A receptor [1])?
Answer: 0.9 ± 0.2

Question: What about the Ki (human 5-HT2A receptor [1]; [12]) of the same molecule?
Answer: 780 ± 2 nM

Question: And the “nH (Hill slope), 5-HT2C binding” value (human 5-HT2C receptor [9])?
Answer: 0.9 ± 0.1

Question: With `COc1cccc([C@H](O)C2CCN(CCc3ccc(F)cc3)CC2)c1OC` [M100907] as the molecule, how does the “5-HT2A selectivity over 5-HT2B receptors” value (5-HT2A) read?
Answer: 500 times

Question: What about the “5-HT2A selectivity over 5-HT2C receptors” value (5-HT2A) of the same molecule?
Answer: 15 times

Question: Which results are given for `CN(C)[C@@H]1Cc2ccccc2[C@H](c2ccccc2)C1` [(−)-cis-PAT]?
Answer: nH (Hill slope), 5-HT2B binding (human 5-HT2B receptor [6]): ~1.0; Ki (human 5-HT2B receptor [6]; [11]): ~10000 nM; nH (Hill slope), 5-HT2A binding (human 5-HT2A receptor [1]): 1.0 ± 0.1; Ki (human 5-HT2A receptor [1]; [12]): 1500 ± 2 nM; nH (Hill slope), 5-HT2C binding (human 5-HT2C receptor [9]): 0.90 ± 0.04
